Results from patent US20090263499A1, “AREA DECON[…] LOW-LEVEL CONCENTRATION OF […]” (Ethicon, Inc., priority 2008, published 2009).
Like-named read-outs stand apart in the source and are kept apart here.

Tested on: G. stearothermophilus spores
Settings: for Average Log Reduction: nominal 0.35 ppm H2O2, blades exposed serially; for Average Log Reduction / AVERAGE LOG REDUCTION: [H2O2] average, low; for AVERAGE LOG REDUCTION: nominal 0.6 ppm H2O2 vapor from urea complex, 6×10^4 spores per blade
Procedure: Stainless steel scalpel blades were inoculated with 10 μL of inoculum containing 6×10^4 spores. The inoculum was then dried on the blade surface. Nine inoculated blades where placed in a 1 ft^3 sealed chamber constructed of acrylic. In the chamber a urea complex was confined in a glass tube with a flow restriction that allowed the concentration of peroxide in the chamber to be controlled. Three identically-inoculated blades where placed inside a covered petrie dish and placed near the chamber to serve as controls. At three day intervals, three blades were retrieved from the chamber as well as one control. These blades were subjected to a standard recovery, plating and incubation procedure from which the viable spore count and log reduction could be determined.

Compound: OO [hydrogen peroxide]
- Average Log Reduction (after 3 days exposure, high 0.35, 0.2, 0.5 ppm): 1.12
- Average Log Reduction (after 7 days exposure, high 0.30, 0.2, 0.5 ppm): 1.83
- Average Log Reduction (after 9 days exposure, high 0.39, 0.2, 0.6 ppm): ≧4.0
- AVERAGE LOG REDUCTION (after 3 days exposure, high 0.56, 0.40, 0.83 ppm): 1.5
- AVERAGE LOG REDUCTION (after 6 days exposure, high 0.66, 0.40, 0.83 ppm): 2.7
- AVERAGE LOG REDUCTION (after 9 days exposure, high 0.66, 0.40, 0.95 ppm): ≧4.8
- log reduction in G. stearothermophilus spores per day (nominal concentration of 0.6 ppm of hydrogen peroxide, from Table 1): ~0.5
